In patent publication US20250032569A1, “COMPOSITION, IN PARTICULAR COSMETIC FORMULATION, COMPRISING A VERBASCOSIDE EXTRACT” (MEDENA AG, priority 2021, published 2025):

What was measured:
[1] = In vitro spectrophotometric SPF calculated by the Sayre equation (Eq. 1); format: physicochemical
Method: Each sample (1 ml) was placed in a 1 cm quartz cell. The absorbance was measured between 250-600 nm at an interval of every 1 nm using a Varian UV/Vis spectrophotometer (Cary 50 Scan). The following parameters were measured and calculated for each sample assuming standard application to the skin—2 mg/cm^2: • the SPF values. • the critical wavelength λC • the UVA/UVB ratio 1. […]
Each sample (1 ml) was placed in a 1 cm quartz cell. The absorbance was measured between 250-600 nm at an interval of every 1 nm using a Varian UV/Vis spectrophotometer (Cary 50 Scan). The following parameters were measured and calculated for each sample assuming standard application to the skin—2 mg/cm^2: • the SPF values. • the critical wavelength λC • the UVA/UVB ratio
The SPF values in vitro were calculated according to the method described by Sayre et al., (Sayre, R M; Agin, P P; LeVee, G J; Marlowe, E. A comparison of in vivo and in vitro testing of sunscreening formulas, Photochem. Photobiol. 1979, 29, 559-566). The calculation was done using Equation 1: […]
where Ss(λ) is the spectral irradiance, Ser(λ) is the CIE erythema action spectrum and T(λ) is the transmission of the sunscreen. The values of Ss(λ) and Ser(λ) were taken from the literature (B. L. Diffey, J. Robson. A new substrate to measure sunscreen protection factors throughout the ultraviolet spectrum, J. Soc. Cosmet. Chem. 1989, 40, 127-133). […]
SPF values were calculated using Eq. 1 for sun protective cosmetics applied at 2 mg/cm^2 (standard application).
The same methods and equations as in the case of plant extracts were applied.
Solutions of sunscreens at concentrations 0.001% were prepared in duplicate and UV-visible absorption spectra were recorded over the range of 250-600 nm (FIG. 1). On the basis of these spectra, the transmission of the sunscreen (T) was found from monochromatic absorbance values at wavelength λ: T=10^−A(λ).
The SPF in vitro was calculated according to the method described by Sayre et al., (Sayre, R M; Agin, P P; LeVee, G J; Marlowe, E. A comparison of in vivo and in vitro testing of sunscreening formulas, Photochem. Photobiol. 1979, 29, 559-566) following equation 1: […]
where Ss(λ) is the spectral irradiance, Ser(λ) the CIE erythema action spectrum and T(λ) the trans-mission of the sunscreen. Data for Ss(λ) and Ser(λ) are available in the literature (B. L. Diffey, J. Robson. A new substrate to measure sunscreen protection factors throughout the ultraviolet spectrum, J. Soc. Cosmet. Chem. 1989, 40, 127-133).
The SPF values were calculated using Eq 1 with the application conditions 2 mg/cm^2 (Standard application recommended by the European Agency).
The SPF value for lotions were calculated using Eq. 1 for three application conditions at 2 mg/cm^2 (standard application), 2.5 mg/cm^2 and 3 mg/cm^2. In the same Table 22, critical wavelength and the UVA/UVB ratios are shown.

[2] = SPF calculated by modified Sayre method; format: physicochemical
Description: In the following Table 20, there are SPF values obtained in vitro spectrophotometrically, which have been calculated by a classical Sayre method (Sayre, R M; Agin, P P; LeVee, G J; Marlowe, E. A comparison of in vivo and in vitro testing of sunscreening formulas, Photochem. Photobiol. 1979, 29, 559-566) and modified Sayre method, which gives results similar to those obtained in the in vivo tests recommended by COLIPA.
• (1) For water insoluble chemical filters, the modified Sayre method gives results close to those calculated by Simulator-Calculator (BASF) and the in vivo tests. The Simulator-Calculator uses the modified Sayre method assuming an exponentiation equal to 0.827 (X^0.827). • (2) For water soluble natural filters, the same modified Sayre method would give results close to those obtained by the in vivo tests (predicted by Simulator-Calculator). Examples of Cosmetic Compositions with Fully Natural Sun Protective Factors • 1. Sun protective lotion SPF 50+, high UV-A protection • 2. Sun protective cream SPF 50+, high UV-A protection • 3. Sun protective serum for pregnant and milking women SPF 50+, high UV-A protection • 4. Sun protective milk for babies SPF 50+, high UV-A protection • 5. Sun protective lotion SPF 20-30, high UV-A protection for people with highly sensitive skin E. Analysis of Sun Protective Parameters of Two Lotions and Cream Containing Lippia citriodora Extract with 40% of Verbascoside.

[3] = organic (synthetic) chemical sunscreens, Table 1; cited from earlier work
[4] = Critical wavelength (λC) from absorption spectra (Eq. 2); format: physicochemical; details: for critical wavelength: chemical sunscreen, no concentration stated
Method: The Critical Wavelength λC is the wavelength, where the area under the absorbance spectrum for the irradiated product from 290 nm to λC is equal to 90% of the integral value of the absorbance spectrum from 290 to 400 nm and was calculated using Eq. 2:
where A (λ)=monochromatic absorbance values at wavelength λ. The critical wavelength was determined for all samples in order to assess a degree of UVA protection. In cases where the critical wavelength is lower than 370 nm, the protection from UVA is less evident.
The Critical Wavelength λC value for the test product was defined as that wavelength where the area under the absorbance spectrum of the sample from 290 nm to λC is 90% of the integral of the absorbance spectrum from 290 to 400 nm and is calculated using Eq. 2:
[formula] • A(λ)=monochromatic absorbance values at wavelength λ

[5] = UVA/UVB ratio from absorption spectra (Eq. 3) and Boots UVA Star Rating; format: physicochemical; details: for ratio UVA/UVB: chemical sunscreen, no concentration stated
Method: Critical Wavelength (λC) and the UVA/UVB ratios were also calculated from the absorption spectra and were collected in Table 2. […] According to these International indications, aqueous solutions of Haberlea rhodopensis with different concentrations of myconoside can be attributed to the group of good protection (2 UVA Star Rating).
In order to further characterize solutions as skin photo-protectors from UVA, the UVA/UVB ratio was calculated using Eq. 3: […]
In order to characterize the ability of creams to protect skin against UVA the UVA/UVB ratio was calculated using Eq. 3: […]

[6] = UV filter 0.5% in sun protective cosmetic (Table 20)
[7] = UV filter 1.0% in sun protective cosmetic (Table 20)
[8] = UV filter 2.5% in sun protective cosmetic (Table 20)
[9] = UV filter 5% in sun protective cosmetic (Table 20)
[10] = UV filter 10% in sun protective cosmetic (Table 20)
[11] = chemical UV filter 0.5% in sun protective solution (Tables 12-19)
[12] = chemical UV filter 1% in sun protective solution (Tables 12-19)
[13] = chemical UV filter 2.5% in sun protective solution (Tables 12-19)
[14] = chemical UV filter 5% in sun protective solution (Tables 12-19)
[15] = chemical UV filter 10% in sun protective solution (Tables 12-19)
[16] = chemical UV filter 0.5% in sun protective solution
[17] = chemical UV filter 1% in sun protective solution
[18] = chemical UV filter 2.5% in sun protective solution
[19] = chemical UV filter 5% in sun protective solution
[20] = chemical UV filter 10% in sun protective solution
[21] = UV filter 0.5% in sun protective cosmetic
[22] = UV filter 1.0% in sun protective cosmetic
[23] = UV filter 2.5% in sun protective cosmetic
[24] = UV filter 5% in sun protective cosmetic
[25] = UV filter 10% in sun protective cosmetic

Row | SMILES | SPF values calculated by the Sayre equation [1, 6] | SPF values calculated by the Sayre equation [1, 7] | SPF values calculated by the Sayre equation [1, 8] | SPF values calculated by the Sayre equation [1, 9] | SPF values [1, 11] | SPF values [1, 12] | SPF values [1, 13] | SPF values [1, 14] | SPF values [1, 15] | Critical wavelength (λC) [4, 16] [nm] | Critical wavelength (λC) [4, 17] [nm] | Critical wavelength (λC) [4, 18] [nm] | Critical wavelength (λC) [4, 19] [nm] | Critical wavelength (λC) [4, 20] [nm] | critical wavelength [4] [nm] | SPF values calculated by Modified Sayre [2, 21] | SPF values calculated by Modified Sayre [2, 22] | SPF values calculated by Modified Sayre [2, 23] | SPF values calculated by Modified Sayre [2, 24] | other results
1 | C[C@@H]1O[C@@H](O[C@@H]2[C@@H](O)[C@H](OCCc3ccc(O)c(O)c3)O[C@H](CO)[C@H]2OC(=O)/C=C/c2ccc(O)c(O)c2)[C@H](O)[C@H](O)[C@H]1O [Verbascoside, β-(3′,4′-dihydroxyphenyl)ethyl-O-α-L-rhamnopyranosyl (1->3)-β-D-(4-O-caffeoyl)-glucopyranoside] |  |  |  |  |  |  |  |  |  |  |  |  |  |  |  |  |  |  |  | SPF values calculated by the Sayre equation ([1]; verbascoside or its analogues from plant extracts 1.0% in sun protective cosmetic (Table 20)): 3.9; SPF values calculated by the Sayre equation ([1]; verbascoside or its analogues from plant extracts 2.5% in sun protective cosmetic (Table 20)): 23; SPF values calculated by the Sayre equation ([1]; verbascoside or its analogues from plant extracts 5% in sun protective cosmetic (Table 20)): 110; SPF values calculated by the Sayre equation ([1]; verbascoside or its analogues from plant/plant cell culture extracts 0.5% in sun protective cosmetic (Table 20)): 2.0; SPF values calculated by Modified Sayre ([2]; verbascoside or its analogues from plant extracts 0.5% in sun protective cosmetic, SPF = a*X^0.827): 2.2; SPF values calculated by Modified Sayre ([2]; verbascoside or its analogues from plant extracts 1.0% in sun protective cosmetic): 3.9; SPF values calculated by Modified Sayre ([2]; verbascoside or its analogues from plant extracts 2.5% in sun protective cosmetic): 8.3; SPF values calculated by Modified Sayre ([2]; verbascoside or its analogues from plant extracts 5% in sun protective cosmetic): 14.8; SPF values calculated by Modified Sayre ([2]; verbascoside or its analogues from plant extracts 8% in sun protective cosmetic): 22; SPF values calculated by Modified Sayre ([2]; verbascoside or its analogues from plant extracts 10% in sun protective cosmetic): 26; SPF values calculated by Modified Sayre ([2]; verbascoside or its analogues from plant extracts 12% in sun protective cosmetic): 31; SPF values calculated by Modified Sayre ([2]; verbascoside or its analogues from plant extracts 20% in sun protective cosmetic): 52
2 | CCCCCCOC(=O)c1ccccc1C(=O)c1ccc(N(CC)CC)cc1O [Uvinul A plus] |  |  |  |  |  |  |  |  |  |  |  |  |  |  |  |  |  |  |  | Absorbs UV-A [3]: UV-A
3 | O=S(=O)([O-])c1cc(S(=O)(=O)O)cc2[nH]c(-c3ccc(-c4nc5c(S(=O)(=O)[O-])cc(S(=O)(=O)O)cc5[nH]4)cc3)nc12.[Na+].[Na+] [Neoheliopan AP] |  |  |  |  |  |  |  |  |  |  |  |  |  |  |  |  |  |  |  | Absorbs UV-A [3]: UV-A
4 | CC(C)(C)CC(C)(C)c1cc(Cc2cc(C(C)(C)CC(C)(C)C)cc(-n3nc4ccccc4n3)c2O)c(O)c(-n2nc3ccccc3n2)c1 [Tinosorb M] |  |  |  |  |  |  |  |  |  |  |  |  |  |  |  |  |  |  |  | Absorbs UV-B [3]: UV-B
5 | CCCCC(CC)COC(=O)C(C#N)=C(c1ccccc1)c1ccccc1 (stereo not drawn) [octocrylene, Octocrylene] | 1.9 | 4 | 13 | 26.5 | 10 | 25 | 42 | 61 | 90 | 342 | 342 | 342 | 342 | 342 | 342 | 1.6 | 2.6 | 4.7 | 7.4 | SPF values calculated by the Sayre equation [1, 10]: 36.8; SPF values calculated by Modified Sayre [2, 25]: 11.7; UVA/UVB [5, 16]: 0.22; UVA/UVB [5, 17]: 0.22; UVA/UVB [5, 18]: 0.22; UVA/UVB [5, 19]: 0.22; UVA/UVB [5, 20]: 0.22; ratio UVA/UVB [5]: 0.22
6 | CCCCC(CC)COC(=O)c1ccc(Nc2nc(Nc3ccc(C(=O)NC(C)(C)C)cc3)nc(Nc3ccc(C(=O)OCC(CC)CCCC)cc3)n2)cc1 (stereo not drawn) [diethylhexyl butamido triazone, Diethylhexyl butamido triazone] | 3.2 | 9.0 | 39 | 98 | 4.1 | 10 | 23 | 44 | 131 | 337 | 337 | 337 | 337 | 337 | 337 | 3.2 | 4.6 | 7.4 | 10.6 | SPF values calculated by the Sayre equation [1, 10]: 394; SPF values ([1]; chemical UV filter 10% in sun protective solution (Tables 12-19), listed as ethylhexyl butamido triazone): 137; SPF values calculated by Modified Sayre [2, 25]: 15.3
7 | CCCCC(CC)COC(=O)c1ccc(Nc2nc(Nc3ccc(C(=O)OCC(CC)CCCC)cc3)nc(Nc3ccc(C(=O)OCC(CC)CCCC)cc3)n2)cc1 (stereo not drawn) [ethylhexyl triazone, Ethylhexyl triazone] | 2.8 | 8 | 69 | 389 | 5.2 | 14 | 33 | 74 | 271 | 341 | 341 | 341 | 341 | 341 | 341 | 2.8 | 4.1 | 6.8 | 10.1 | SPF values ([1]; chemical UV filter 2.5% in sun protective solution (Tables 12-19), listed as ethyl hexyl triazone): 44; UVA/UVB [5, 16]: 0.21; UVA/UVB [5, 17]: 0.21; UVA/UVB [5, 18]: 0.21; UVA/UVB [5, 19]: 0.21; UVA/UVB [5, 20]: 0.21; ratio UVA/UVB [5]: 0.21
